Counter-ions that a name gives are not always drawn.
Molecular target: T1, Cyclin E/CDK2 (Homo sapiens, UniProt P24941)
T1 construct: made in house; host or cells: insect cells
Test: CDK2 FlashPlate Assay (inhibition of Rb phosphorylation by Cyclin E/CDK2)
Assay type: biochemical
Conditions: Table IA; recombinant human Cyclin E/CDK2, Rb substrate, 25 minutes room temperature

Compound	IC50 [µM]
CNCC#Cc1cccc2c1/C(=C/c1[nH]ccc1OC)C(=O)N2 [JJ, (Z)-1,3-Dihydro-3-[(3-methoxy-1H-pyrrol-2-yl)methylene]-4-[3-(N-methylamino)-1-propynyl]-2H-indol-2-one trifluoroacetate salt]	< 4
COC(=O)CCC#Cc1cccc2c1/C(=C/c1[nH]ccc1OC)C(=O)N2 [F, (Z)-5-[2,3-Dihydro-3-[(3-methoxy-1H-pyrrol-2-yl)methylene]-2-oxo-1H-indol-4-yl]-4-pentynoic acid methyl ester]	< 4
COc1cc[nH]c1/C=C1\C(=O)Nc2cccc(C#CCCCO)c21 [Compound B, (Z)-1,3-Dihydro-4-(5-hydroxy-1-pentynyl)-3-[(3-methoxy-1H-pyrrol-2-yl)methylene]-2H-indol-2-one]	< 4
COC(=O)C(CC#Cc1cccc2c1/C(=C/c1[nH]ccc1OC)C(=O)N2)C(=O)OC [V, (Z)-[3-[2,3-Dihydro-3-[(3-methoxy-1H-pyrrol-2-yl)methylene]-2-oxo-1H-indol-4-yl]-2-propynyl]propanedioic acid dimethyl ester]	< 4
CCC(C)(O)C#Cc1cccc2c1/C(=C/c1[nH]ccc1OC)C(=O)N2 (racemic) [D, rac-(Z)-1,3-Dihydro-4-(3-hydroxy-3-methyl-1-pentynyl)-3-[(3-methoxy-1H-pyrrol-2-yl)methylene]-2H-indol-2-one]	< 4
COc1cc[nH]c1/C=C1\C(=O)Nc2cccc(C#CCO)c21 [Y, (Z)-1,3-Dihydro-4-(3-hydroxy-1-propynyl)-3-[(3-methoxy-1H-pyrrol-2-yl)methylene]-2H-indol-2-one]	< 4
COc1cc[nH]c1/C=C1\C(=O)Nc2cccc(C#CCCCC(=O)O)c21 [G, (Z)-6-[2,3-Dihydro-3-[(3-methoxy-1H-pyrrol-2-yl)methylene]-2-oxo-1H-indol-4-yl]-5-hexynoic acid]	< 4
COc1cc[nH]c1/C=C1\C(=O)Nc2ccc(N)c(C#CCO)c21 [Compound BB, (Z)-5-Amino-1,3-dihydro-4-(3-hydroxy-1-propynyl)-3-[(3-methoxy-1H-pyrrol-2-yl)methylene]-2H-indol-2-one]	< 4
COc1cc[nH]c1/C=C1\C(=O)Nc2cccc(C#CCC(C(=O)O)C(=O)O)c21 [W, (Z)-[3-[2,3-Dihydro-3-[(3-methoxy-1H-pyrrol-2-yl)methylene]-2-oxo-1H-indol-4-yl]-2-propynyl]propanedioic acid]	< 4
COc1cc[nH]c1/C=C1\C(=O)Nc2cccc(C#CC(C)(C)O)c21 [L, (Z)-1,3-Dihydro-4-(3-hydroxy-3-methyl-1-butynyl)-3-[(3-methoxy-1H-pyrrol-2-yl)methylene]-2H-indol-2-one]	< 4
COC(=O)CCC#Cc1c(N)ccc2c1/C(=C/c1[nH]ccc1OC)C(=O)N2 [FF, (Z)-5-[5-Amino-2,3-dihydro-3-[(3-methoxy-1H-pyrrol-2-yl)methylene]-2-oxo-1H-indol-4-yl]-4-pentynoic acid methyl ester]	< 4
COc1cc[nH]c1/C=C1\C(=O)Nc2cccc(C#CC3(O)CCCCC3)c21 [M, (Z)-1,3-Dihydro-4-[(1-hydroxycyclohexyl)ethynyl]-3-[(3-methoxy-1H-pyrrol-2-yl)methylene]-2H-indol-2-one]	< 4
COc1cc[nH]c1/C=C1\C(=O)Nc2cccc(C#CCCC(N)=O)c21 [J, (Z)-5-[2,3-Dihydro-3-[(3-methoxy-1H-pyrrol-2-yl)methylene]-2-oxo-1H-indol-4-yl]-4-pentynamide]	< 4
COc1cc[nH]c1/C=C1\C(=O)Nc2ccc(NC(=O)Cc3cccs3)c(C#CCCC(=O)O)c21 [HH, (Z)-5-[2,3-Dihydro-3-[(3-methoxy-1H-pyrrol-2-yl)methylene]-2-oxo-5-[(2-thienylacetyl)amino]-1H-indol-4-yl]-4-pentynoic acid]	< 4
COC(=O)NCC#Cc1cccc2c1/C(=C/c1[nH]ccc1OC)C(=O)N2 [LL, (Z)-[3-[2,3-Dihydro-3-[(3-methoxy-1H-pyrrol-2-yl)methylene]-2-oxo-1H-indol-4-yl]-2-propynyl]carbamic acid methyl ester]	< 4
COC(=O)CCCC#Cc1cccc2c1/C(=C/c1[nH]ccc1OC)C(=O)N2 [E, (Z)-6-[2,3-Dihydro-3-[(3-methoxy-1H-pyrrol-2-yl)methylene]-2-oxo-1H-indol-4-yl]-5-hexynoic acid methyl ester]	< 4
COc1cc[nH]c1/C=C1\C(=O)Nc2cccc(C#CCN)c21 [II, (Z)-4-(3-Amino-1-propynyl)-1,3-dihydro-3-[(3-methoxy-1H-pyrrol-2-yl)methylene]-2H-indol-2-one trifluoroacetate salt]	< 4

Compound	IC50 [µM]
CCC(O)C#Cc1cccc2c1/C(=C/c1[nH]ccc1OC)C(=O)N2 (racemic) [R, rac-(Z)-1,3-Dihydro-4-(3-hydroxy-1-pentynyl)-3-[(3-methoxy-1H-pyrrol-2-yl)methylene]-2H-indol-2-one]	< 4
COc1cc[nH]c1/C=C1\C(=O)Nc2cccc(C#CCCCC(N)=O)c21 [K, (Z)-6-[2,3-Dihydro-3-[(3-methoxy-1H-pyrrol-2-yl)methylene]-2-oxo-1H-indol-4-yl]-5-hexynamide]	< 4
COCC#Cc1cccc2c1/C(=C/c1[nH]ccc1OC)C(=O)N2 [X, (Z)-1,3-Dihydro-4-(3-methoxy-1-propynyl)-3-[(3-methoxy-1H-pyrrol-2-yl)methylene]-2H-indol-2-one]	< 4
COc1cc[nH]c1/C=C1\C(=O)Nc2cccc(C#CC3(O)CCCC3)c21 [AA, (Z)-1,3-Dihydro-4-[(1-hydroxycyclopentyl)ethynyl]-3-[(3-methoxy-1H-pyrrol-2-yl)methylene]-2H-indol-2-one]	< 4
CNC(=O)OCC#Cc1cccc2c1/C(=C/c1[nH]ccc1OC)C(=O)N2 [NN, (Z)-N-Methylcarbamic acid 3-[2,3-dihydro-3-[(3-methoxy-1H-pyrrol-2-yl)methylene]-2-oxo-1H-indol-4-yl]-2-propynyl ester]	< 4
CCCCCC(O)C#Cc1cccc2c1/C(=C/c1[nH]ccc1OC)C(=O)N2 (racemic) [Q, rac-(Z)-1,3-Dihydro-4-(3-hydroxy-1-octynyl)-3-[(3-methoxy-1H-pyrrol-2-yl)methylene]-2H-indol-2-one]	< 4
COc1cc[nH]c1/C=C1\C(=O)Nc2cccc(C#CCCC(=O)O)c21 [H, (Z)-5-[2,3-Dihydro-3-[(3-methoxy-1H-pyrrol-2-yl)methylene]-2-oxo-1H-indol-4-yl]-4-pentynoic acid]	< 4
COc1cc[nH]c1/C=C1\C(=O)Nc2cccc(C#CC(C)(O)CC(C)C)c21 (racemic) [O, rac-(Z)-1,3-Dihydro-4-(3,5-dimethyl-3-hydroxy-1-hexynyl)-3-[(3-methoxy-1H-pyrrol-2-yl)methylene]-2H-indol-2-one]	< 4
Cc1nc[nH]c1/C=C1\C(=O)Nc2ccc(F)c(C#CCNC(N)=O)c21 [ZZ, (Z)-[3-[5-fluoro-2,3-dihydro-3-[(4-methyl-1H-imidazol-5-yl)methylene]-2-oxo-1H-indol-4-yl]-2-propynyl]urea]	< 4
C#CCOCCO [Example 21, 3-(2-Hydroxyethoxy)-1-propyne]	< 4
CCCC(C)(O)C#Cc1cccc2c1/C(=C/c1[nH]ccc1OC)C(=O)N2 (racemic) [N, rac-(Z)-1,3-Dihydro-4-(3-hydroxy-3-methyl-1-hexynyl)-3-[(3-methoxy-1H-pyrrol-2-yl)methylene]-2H-indol-2-one]	< 4
COc1cc[nH]c1/C=C1\C(=O)Nc2cccc(C#CCCCCO)c21 [A, (Z)-1,3-Dihydro-4-(6-hydroxy-1-hexynyl)-3-[(3-methoxy-1H-pyrrol-2-yl)methylene]-2H-indol-2-one]	< 4
COc1cc[nH]c1/C=C1\C(=O)Nc2cccc(C#CCCO)c21 [C, (Z)-1,3-Dihydro-4-(4-hydroxy-1-butynyl)-3-[(3-methoxy-1H-pyrrol-2-yl)methylene]-2H-indol-2-one]	< 4
COc1cc[nH]c1/C=C1\C(=O)Nc2ccc(NC(=O)c3ccncc3)c(C#CCO)c21 [DD, (Z)-N-[2,3-Dihydro-4-(3-hydroxy-1-propynyl)-3-[(3-methoxy-1H-pyrrol-2-yl)methylene]-2-oxo-1H-indol-5-yl]-4-pyridinecarboxamide]	< 4
COc1cc[nH]c1/C=C1\C(=O)Nc2cccc(C#CCOC(N)=O)c21 [MM, (Z)-Carbamic acid 3-[2,3-dihydro-3-[(3-methoxy-1H-pyrrol-2-yl)methylene]-2-oxo-1H-indol-4-yl]-2-propynyl ester]	< 4
COc1cc[nH]c1/C=C1\C(=O)Nc2cccc(C#CCNCc3ccccc3)c21 [KK, (Z)-1,3-Dihydro-3-[(3-methoxy-1H-pyrrol-2-yl)methylene]-4-[3-(N-phenylmethylamino)-1-propynyl]-2H-indol-2-one]	< 4
CCCCC[C@H](O)C#Cc1cccc2c1/C(=C/c1[nH]ccc1OC)C(=O)N2 [U, (S)-(Z)-1,3-Dihydro-4-(3-hydroxy-1-octynyl)-3-[(3-methoxy-1H-pyrrol-2-yl)methylene]-2H-indol-2-one]	< 4

Same assay, conditions: Table IB; concentration ≤1.0 μM

Compound	inhibition at 1 µM [%]
COc1cc[nH]c1/C=C1\C(=O)Nc2ccc([N+](=O)[O-])c(C#CCO)c21 [Z, (Z)-1,3-Dihydro-4-(3-hydroxy-1-propynyl)-3-[(3-methoxy-1H-pyrrol-2-yl)methylene]-5-nitro-2H-indol-2-one]	> 90
COC(=O)CCC#Cc1c([N+](=O)[O-])ccc2c1/C(=C/c1[nH]ccc1OC)C(=O)N2 [EE, (Z)-5-[2,3-Dihydro-3-[(3-methoxy-1H-pyrrol-2-yl)methylene]-5-nitro-2-oxo-1H-indol-4-yl]-4-pentynoic acid methyl ester]	> 60

Source: US6130239A, “4-Alkenyl- and 4-alkynyloxindoles” (Hoffmann-La Roche Inc., priority 1999, dated 2000)
